Test results published in US12649942B2, “Carotenoids for treating or preventing nausea” (priority 2019, dated 2026).

How the values were obtained:
pgp-5p::gfp [1] = experiment: pgp-5p::gfp induction in eft-3(q145);pgp-5p::gfp animals (translation deficit); assay type: in vivo, C. elegans; conditions: vs mock-treated
pgp-5p::gfp [2] = experiment: pgp-5p::gfp induction in response to hygromycin, emetine or cisplatin; assay type: in vivo, C. elegans; conditions: animals fed E. coli OP50; hygromycin 10 μg/ml, emetine 6.25 μg/ml, cisplatin 1 mM
Method: Hygromycin diluted in M9 solution to the desired concentration was added onto E. coli OP50 bacteria containing NGM plates. […] For the xenobiotic experiments, synchronized L1-stage animals were dropped onto the drug containing plates and scored 4 days later.

C. elegans = experiment: food aversion behavior; assay type: in vivo; conditions: for food aversion induced by the drug: in vivo
Method: In some embodiments, a food aversion assay as described herein is used. In some embodiments, a test sample is, or is derived from (e.g., a sample taken from) an in vivo model of a disorder as described herein. For example, a test compound is applied to a test sample comprising one or more C. elegans organisms, and one or more effects of the test compound is evaluated. For example, the ability of a test compound to counteract food aversion in the presence of a chemotherapeutic agent or other nausea-inducing stimulus can be tested. Alternatively, effects on a reporter gene, e.g., ABC transporter gene fusion pgp-5p::gfp, can be evaluated by detecting alterations in GFP fluorescence. As one of skill in the art will appreciate, other reporters could readily be used.
C. elegans food aversion behaviors are induced when animals are exposed to xenobiotics or essential gene inactivations (Melo and Ruvkun, 2012). […] While ˜40% of animals exposed to 25 μg/ml hygromycin display food aversion behavior, ˜15% of animals exposed to 25 μg/ml hygromycin and K. rhizophila carotenoid extract show aversion (FIG. 3E). Similar results were obtained with cisplatin: ˜50% of animals exposed to 1 mM cisplatin display aversion behavior while <20% of animals exposed to 1 mM cisplatin and K. rhizophila carotenoid extract display food aversion (FIG. 3F).

[3] = animals on E. coli OP50 treated with the substance, screened after 50 hours at 20° C.
[4] = animals fed on E. coli expressing the carotenoid

Row | SMILES | induction of pgp-5p::gfp (pgp-5p::gfp [1]; [3]) | induction of pgp-5p::gfp (pgp-5p::gfp [1]; [4]) | other results
1 | CC(=O)N[C@@H](CS)C(=O)O [N-acetyl cysteine] | not significantly different | – | –
2 | CC1=CCCC(C)(C)C1/C=C/C(C)=C/C=C/C(C)=C/C=C/C=C(C)/C=C/C=C(C)/C=C/C1=C(C)CCCC1(C)C (stereo not drawn) [alpha-carotene] | – | not significantly different | –
3 | CC1=C(/C=C/C(C)=C/C=C/C(C)=C/C=C/C=C(C)/C=C/C=C(C)/C=C/C2=C(C)C(=O)[C@@H](O)CC2(C)C)C(C)(C)C[C@H](O)C1=O [astaxanthin] | not significantly different | – | –
4 | CC1=C(/C=C/C(C)=C/C=C/C(C)=C/C=C/C=C(C)/C=C/C=C(C)/C=C/C2=C(C)CCCC2(C)C)C(C)(C)CCC1 [beta-carotene] | not significantly different | – | –
5 | N.N.[Cl][Pt][Cl] [cisplatin] | – | – | pgp-5p::gfp expression induced by the drug (pgp-5p::gfp [2]): induces pgp-5p::gfp expression; animals that display aversion behavior (C. elegans; 1 mM cisplatin, no extract): ~50%; food aversion induced by the drug (C. elegans): strong food aversion
6 | CC(C)=CCC/C(C)=C/C=C/C(C)=C/C=C/C(C)=C/C=C/C=C(C)/C=C/C=C(C)/C=C/C1C(C)=CCCC1(C)C (stereo not shown) [delta-carotene] | – | not significantly different | –
7 | CC[C@H]1CN2CCc3cc(OC)c(OC)cc3[C@@H]2C[C@@H]1C[C@H]1NCCc2cc(OC)c(OC)cc21 [emetine] | – | – | food aversion induced by the drug (C. elegans): strong food aversion
8 | CC(C)=CCC/C(C)=C/C=C/C(C)=C/C=C/C(C)=C/C=C/C=C(C)/C=C/C=C(\C)CC/C=C(\C)CCC=C(C)C [neurosporene] | – | not significantly different | –
9 | Cc1c(C)c2c(c(C)c1O)CCC(C)(C(=O)O)O2 (stereo not shown) [trolox] | not significantly different | – | –
10 | CC(/C=C/C=C(C)/C=C/[C@@]12O[C@]1(C)C[C@@H](O)CC2(C)C)=C\C=C\C=C(C)\C=C\C=C(C)\C=C\[C@@]12O[C@]1(C)C[C@@H](O)CC2(C)C [violaxanthin] | – | not significantly different | –
11 | CC1=C(/C=C/C(C)=C/C=C/C(C)=C/C=C/C=C(C)/C=C/C=C(C)/C=C/C2=C(C)C[C@@H](O)CC2(C)C)C(C)(C)C[C@H](O)C1 [zeaxanthin] | – | not significantly different | –
